This assay addresses T1, ERα (Homo sapiens, UniProt P03372).
T1 construct: host or cells: MCF7
T1 sequence (P03372 1-595): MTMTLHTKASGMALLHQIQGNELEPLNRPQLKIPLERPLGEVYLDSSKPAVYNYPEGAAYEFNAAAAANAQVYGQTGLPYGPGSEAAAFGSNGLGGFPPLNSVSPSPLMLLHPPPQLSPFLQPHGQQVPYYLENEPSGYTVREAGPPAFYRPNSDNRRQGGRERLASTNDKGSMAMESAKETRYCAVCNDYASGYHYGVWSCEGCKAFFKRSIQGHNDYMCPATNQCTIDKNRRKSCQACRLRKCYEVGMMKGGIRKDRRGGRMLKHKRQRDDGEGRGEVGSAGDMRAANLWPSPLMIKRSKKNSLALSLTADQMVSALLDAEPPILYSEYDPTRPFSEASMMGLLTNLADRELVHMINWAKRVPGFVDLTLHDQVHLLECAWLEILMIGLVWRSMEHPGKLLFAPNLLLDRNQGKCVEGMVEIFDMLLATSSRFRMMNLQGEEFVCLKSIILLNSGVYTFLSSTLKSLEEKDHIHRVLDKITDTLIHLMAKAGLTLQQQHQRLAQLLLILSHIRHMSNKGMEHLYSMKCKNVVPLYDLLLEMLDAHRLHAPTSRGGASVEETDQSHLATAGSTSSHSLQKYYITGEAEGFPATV
In words: Estrogen receptor degradation activity: breast cancer cell ERα in cell western assay. The format is cell-based. The conditions noted are these: MCF7 cells, 4 hours, relative to fulvestrant 0.1 μM positive control. Summed up:
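MCF7 cells in phenol red-free medium with 5% charcoal-stripped FBS, 4 h exposure to 9-point 1:5 dilutions (final 0.3–0.0000018 μM). ERα immunostained in fixed cells and normalised to DNA dye; % decrease scaled between DMSO and 0.1 μM fulvestrant, IC50 reported in nM.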
As to `CCc1cc(C(F)(F)F)ccc1C1=C(c2ccc(CC3CN(CCCF)C3)cc2)c2ccc(C(=O)O)cc2CCC1` [Compound 69, 8-(2-ethyl-4-(trifluoromethyl)phenyl)-9-(4-((1-(3-fluoropropyl)azetidin-3-yl)methyl)phenyl)-6,7-dihydro-5H-benzo[7]annulene-3-carboxylic acid], the “% Degradation At 0.3 μM” value turned out to be 91%. For `CCc1ccc(C2=C(c3ccc(CC4CN(CCCF)C4)cc3)c3ccc(C(=O)O)cc3CCC2)c(C(F)(F)F)c1` [Compound 70, 8-(4-ethyl-2-(trifluoromethyl)phenyl)-9-(4-((1-(3-fluoropropyl)azetidin-3-yl)methyl)phenyl)-6,7-dihydro-5H-benzo[7]annulene-3-carboxylic acid] the value was 92%; for `COc1ccc(C2=C(c3ccc(CC4CN(CCCF)C4)cc3)c3ccc(C(=O)O)cc3CCC2)cc1OC` [Compound 71, 8-(3,4-dimethoxyphenyl)-9-(4-((1-(3-fluoropropyl)azetidin-3-yl)methyl)phenyl)-6,7-dihydro-5H-benzo[7]annulene-3-carboxylic acid], 96%; for `COc1cc(C)cc(C)c1C1=C(c2ccc(CC3CN(CCCF)C3)cc2)c2ccc(C(=O)O)cc2CCC1` [Compound 72, 9-(4-((1-(3-fluoropropyl)azetidin-3-yl)methyl)phenyl)-8-(2-methoxy-4,6-dimethylphenyl)-6,7-dihydro-5H-benzo[7]annulene-3-carboxylic acid], 91%. Take `Cc1ccc(F)c(C)c1C1=C(c2ccc(CC3CN(CCCF)C3)cc2)c2ccc(C(=O)O)cc2CCC1` [Compound 73, 8-(3-fluoro-2,6-dimethylphenyl)-9-(4-((1-(3-fluoropropyl)azetidin-3-yl)methyl)phenyl)-6,7-dihydro-5H-benzo[7]annulene-3-carboxylic acid]: the “% Degradation At 0.3 μM” value is on record as 84%.

(Values after patent US20250263390A1, “NOVEL SUBSTITUTED 6,7-DIHYDRO-5H-BENZO[7]ANNULENE COMPOUNDS AND THEIR DERIVATIVES, PROCESSES FOR THEIR PREPARATION AND THERAPEUTIC USES THEREOF” (SANOFI, priority 2022, published 2025).)
